Laboratory results reported in US8440790B2, “Crystal structure of the CCZ-LZ domain of NEMO” (Les Laboratoires Servier, priority 2008, dated 2013).

What was measured:
NF-κB pathway = test: Functional complementation in NEMO-deficient mouse embryo fibroblasts (Igκ-luciferase reporter, TNFα stimulation); format: cell-based; conditions: NEMO-deficient MEF transiently transfected with NEMO variant and Igκ-luciferase reporter; TNFα stimulation for 24 hours; compared with wild-type NEMO
Description: The capabilities of the wild-type NEMO protein and of the above-defined mutant NEMO proteins in restoring activation of the NF-κB pathway in response to the proinflammatory cytokine TNF-α are compared and illustrated in FIG. 5. For that purpose, NEMO-deficient mouse embryo fibroblasts (MEF) are transiently co-transfected on the one hand with the plasmid coding for the Igκ-luciferase reporter gene and on the other hand with the plasmids coding for the various proteins, and then stimulated with TNFα for 24 hours. The wild-type protein completely restores the NF-κB pathway whereas TNFα-dependent activation of the NF-κB pathway is affected by the mutant proteins in differing degrees.
NEMO-deficient mouse embryo fibroblasts (MEF) are cultured in cell culture jars and transiently transfected with a mixture containing: 0.2 μg of a plasmid pEF1 coding for β-galactosidase, 0.5 μg of a plasmid containing the Igk-luciferase reporter gene and 2 μg of plasmids expressing the different variants of NEMO. Twenty-four hours after transfection, the cells are activated with TNFα (20 ng/ml) for 24 hours. The cells are then recovered and then lysed in 110 μl of a buffer of 25 mM Tris/Phosphate pH 7.8, 8 mM MgCl2, 1% Triton, 1 mM dithiothreitol, 15% to glycerol to which a cocktail of proteases is added (Roche). […] The activity of the reporter gene is measured.

[1] = Gel filtration of the wild-type CC2-LZ protein and the mutant F312A; format: physicochemical; conditions: CC2-LZ domain of NEMO; compared with wild-type CC2-LZ protein
Description: The gel filtration experiments are carried out at 4° C. on a Superdex 75 HR 10/30 column (Amersham Biosciences). The column is equilibrated in a buffer of Tris/HCl 50 mM pH7.5, NaCl 200 mM, DTE 0.2 mM at 4° C. with a flow rate of 0.5 ml/min. A sample of constant volume (200 μl), at a concentration of 0.3 μM, is injected onto the column at a rate of 0.5 ml/min. The proteins are diluted in the equilibration buffer of the column and allowed to stand at 4° C. for 2 hours before injection in order to allow them to equilibrate. In order to detect elution of the proteins, an RF-10 AXL spectrofluorimeter (Shimadzu) is connected on-line to the AKTA apparatus. The intrinsic fluorescence is recorded, measuring the emission of fluorescence of the tyrosine residues at 310 nm after excitation at 280 nm.

Substance	inhibition of TNFα-dependent activation of the NF-κB pathway (NF-κB pathway)	effect of the mutation on the stability of the dimer (elution profile on gel filtration) [1]
A323P: human NEMO protein with point mutation Ala323Pro (position 316 in the mouse), cause of incontinentia pigmenti	95%	
F312A: human NEMO / CC2-LZ protein with point mutation Phe312Ala (position 305 in the mouse), within the ubiquitin-binding site	78%	does not affect the stability of the dimer
